{"source": "patent US7528140B2", "about": "“Substituted pyrrolo[3,2-d]pyrimidines as glycogen synthase kinase (GSK) inhibitors” (Teijin Limited, priority 2002, dated 2009)", "note": "pIC50: −log10 of the molar value.", "data": [{"biological_target": "recombinant human GSK-3β (Homo sapiens, UniProt P49841)", "sequence (P49841 whole entry)": "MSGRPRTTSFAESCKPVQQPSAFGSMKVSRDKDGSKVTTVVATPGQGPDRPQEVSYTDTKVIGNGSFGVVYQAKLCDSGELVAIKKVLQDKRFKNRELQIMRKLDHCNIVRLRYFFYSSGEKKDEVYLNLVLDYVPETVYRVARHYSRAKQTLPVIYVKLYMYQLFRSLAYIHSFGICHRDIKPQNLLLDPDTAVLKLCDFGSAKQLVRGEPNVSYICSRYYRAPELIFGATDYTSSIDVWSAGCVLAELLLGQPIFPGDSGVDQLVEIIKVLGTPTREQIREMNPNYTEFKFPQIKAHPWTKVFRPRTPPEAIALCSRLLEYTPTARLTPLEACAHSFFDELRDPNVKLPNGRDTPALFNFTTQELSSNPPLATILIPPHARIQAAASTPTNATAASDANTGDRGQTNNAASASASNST", "assay": "Measurement of GSK-3 enzyme activity inhibition (32P phosphorylation of phospho-glycogen synthase peptide-2)", "type": "biochemical", "conditions": "20 μM ATP, 20 minutes at room temperature, read-out: GSK-3 enzyme inhibiting activity (IC50)", "protocol": "Measurement of GSK-3 Enzyme Activity Inhibition\nAfter adding 25 μL of phospho-glycogen synthase peptide-2 substrate solution [6 μM phospho -glycogen synthase peptide-2, 20 μM ATP, 16 mM MOPS buffer (pH 7.0), 0.2 mM EDTA, 20 mM magnesium acetate, 0.1 μCi [γ-^32P]ATP (specific activity: approximately 110 TBq/mmol)]to 5 μL of the test compound using 5% dimethylsulfoxide as the solvent, reaction was initiated by further addition of 20 μL of a GSK-3β enzyme solution [10 mU recombinant human GSK-3β, 20 mM MOPS buffer (pH 7.0), 1 mM EDTA, 0.1% polyoxyethylene lauryl ether (23 Lauryl Ether; Brij 35), 5% glycerol, 0.1% β-mercaptoethanol]. After conducting the reaction for 20 minutes at room temperature, an equivalent volume of a 200 mM phosphoric acid solution was added to quench the reaction, and 90 μL of the reaction product was adsorbed onto a MultiScreen PH plate (Millipore) and rinsed with a 100 mM phosphoric acid solution. After drying the plate, 30 μL of Micro Scint-O (Packard BioScience) was added, and the cpm was measured with a scintillation counter to determine the inhibiting activity. Phospho GS Peptide2 is […]P)-Glu-Asp-Glu-Glu-Glu (SEQ ID NO:1).", "values": [{"smiles": "N#Cc1c(-c2ccccc2)[nH]c2c(=O)[nH]cnc12", "note": "[1-0007]", "pIC50": "5.00 to 6.00"}, {"smiles": "CSCCCn1c(-c2ccccc2)c(C#N)c2nc[nH]c(=O)c21", "note": "[1-0263]", "pIC50": "5.00 to 6.00"}, {"smiles": "N#Cc1cn(Cc2ccccc2)c2c(=S)[nH]cnc12", "note": "[1-0301]", "pIC50": "5.00 to 6.00"}, {"smiles": "COc1ccccc1-c1[nH]c2c(=O)[nH]cnc2c1C#N", "note": "[1-0038, 6-(2-methoxyphenyl)-4-oxo-3-hydropyrrolo[3,2-d]pyrimidine-7-carbonitrile]", "pIC50": "5.00 to 6.00"}, {"smiles": "N#Cc1c(-c2ccco2)n(CCC(=O)N2CCCCC2)c2c(=S)[nH]cnc12", "note": "[3-0156]", "pIC50": "> 8.00"}, {"smiles": "CC(=O)OCCCn1c(-c2ccccc2)c(C#N)c2nc[nH]c(=O)c21", "note": "[2-0519]", "pIC50": "5.00 to 6.00"}, {"smiles": "N#Cc1c(-c2ccco2)n(CCNC(=O)C(F)(F)F)c2c(=S)[nH]cnc12", "note": "[2-1804, N-[2-(7-cyano-6-(2-furyl)-4-thioxo(3-hydropyrrolo[3,2-d]pyrimidin-5-yl))ethyl]-2,2,2-trifluoroacetamide]", "pIC50": "7.00 to 7.52"}, {"smiles": "N#Cc1c(C=Cc2ccccc2)[nH]c2c(=O)[nH]cnc12", "note": "[1-0006]", "pIC50": "5.00 to 6.00"}, {"smiles": "CC(C)(C)OC(=O)NCCCn1c(-c2ccccc2)c(C#N)c2nc[nH]c(=O)c21", "note": "[2-0208]", "pIC50": "5.00 to 6.00"}, {"smiles": "N#Cc1c(-c2ccccc2)n(CCCO)c2c(=O)[nH]cnc12", "note": "[1-0194]", "pIC50": "5.00 to 6.00"}, {"smiles": "N#Cc1c(-c2ccccc2)n(CCC(=O)N2CCCCC2)c2c(=S)[nH]cnc12", "note": "[3-0152]", "pIC50": "> 8.00"}, {"smiles": "N#Cc1c(C2CC2)n(Cc2ccccc2)c2c(=O)[nH]cnc12", "note": "[1-0303]", "pIC50": "5.00 to 6.00"}, {"smiles": "CN(C(=O)CCn1c(-c2ccccc2)c(C#N)c2nc[nH]c(=S)c21)c1ccccc1", "note": "[3-0099]", "pIC50": "5.00 to 6.00"}]}]}
